From US10239869B2, “Sulfonamide compounds as voltage-gated sodium channel modulators” (LUPIN LIMITED, priority 2015, dated 2019) come the findings set out here.

Where two headings read alike, the source gives them in different places.

The target of data set [1] is Nav 1.7 (Homo sapiens (Human), UniProt Q15858). Description: Inhibition of sodium channels, Red Membrane Potential Dye FLIPR assay, veratridine depolarization. The format is cell-based. As to conditions: HEK-293 cells overexpressing the channel; for IC50: read-out: Nav1.7 IC50.
Sequence of Nav 1.7 (Q15858 whole entry): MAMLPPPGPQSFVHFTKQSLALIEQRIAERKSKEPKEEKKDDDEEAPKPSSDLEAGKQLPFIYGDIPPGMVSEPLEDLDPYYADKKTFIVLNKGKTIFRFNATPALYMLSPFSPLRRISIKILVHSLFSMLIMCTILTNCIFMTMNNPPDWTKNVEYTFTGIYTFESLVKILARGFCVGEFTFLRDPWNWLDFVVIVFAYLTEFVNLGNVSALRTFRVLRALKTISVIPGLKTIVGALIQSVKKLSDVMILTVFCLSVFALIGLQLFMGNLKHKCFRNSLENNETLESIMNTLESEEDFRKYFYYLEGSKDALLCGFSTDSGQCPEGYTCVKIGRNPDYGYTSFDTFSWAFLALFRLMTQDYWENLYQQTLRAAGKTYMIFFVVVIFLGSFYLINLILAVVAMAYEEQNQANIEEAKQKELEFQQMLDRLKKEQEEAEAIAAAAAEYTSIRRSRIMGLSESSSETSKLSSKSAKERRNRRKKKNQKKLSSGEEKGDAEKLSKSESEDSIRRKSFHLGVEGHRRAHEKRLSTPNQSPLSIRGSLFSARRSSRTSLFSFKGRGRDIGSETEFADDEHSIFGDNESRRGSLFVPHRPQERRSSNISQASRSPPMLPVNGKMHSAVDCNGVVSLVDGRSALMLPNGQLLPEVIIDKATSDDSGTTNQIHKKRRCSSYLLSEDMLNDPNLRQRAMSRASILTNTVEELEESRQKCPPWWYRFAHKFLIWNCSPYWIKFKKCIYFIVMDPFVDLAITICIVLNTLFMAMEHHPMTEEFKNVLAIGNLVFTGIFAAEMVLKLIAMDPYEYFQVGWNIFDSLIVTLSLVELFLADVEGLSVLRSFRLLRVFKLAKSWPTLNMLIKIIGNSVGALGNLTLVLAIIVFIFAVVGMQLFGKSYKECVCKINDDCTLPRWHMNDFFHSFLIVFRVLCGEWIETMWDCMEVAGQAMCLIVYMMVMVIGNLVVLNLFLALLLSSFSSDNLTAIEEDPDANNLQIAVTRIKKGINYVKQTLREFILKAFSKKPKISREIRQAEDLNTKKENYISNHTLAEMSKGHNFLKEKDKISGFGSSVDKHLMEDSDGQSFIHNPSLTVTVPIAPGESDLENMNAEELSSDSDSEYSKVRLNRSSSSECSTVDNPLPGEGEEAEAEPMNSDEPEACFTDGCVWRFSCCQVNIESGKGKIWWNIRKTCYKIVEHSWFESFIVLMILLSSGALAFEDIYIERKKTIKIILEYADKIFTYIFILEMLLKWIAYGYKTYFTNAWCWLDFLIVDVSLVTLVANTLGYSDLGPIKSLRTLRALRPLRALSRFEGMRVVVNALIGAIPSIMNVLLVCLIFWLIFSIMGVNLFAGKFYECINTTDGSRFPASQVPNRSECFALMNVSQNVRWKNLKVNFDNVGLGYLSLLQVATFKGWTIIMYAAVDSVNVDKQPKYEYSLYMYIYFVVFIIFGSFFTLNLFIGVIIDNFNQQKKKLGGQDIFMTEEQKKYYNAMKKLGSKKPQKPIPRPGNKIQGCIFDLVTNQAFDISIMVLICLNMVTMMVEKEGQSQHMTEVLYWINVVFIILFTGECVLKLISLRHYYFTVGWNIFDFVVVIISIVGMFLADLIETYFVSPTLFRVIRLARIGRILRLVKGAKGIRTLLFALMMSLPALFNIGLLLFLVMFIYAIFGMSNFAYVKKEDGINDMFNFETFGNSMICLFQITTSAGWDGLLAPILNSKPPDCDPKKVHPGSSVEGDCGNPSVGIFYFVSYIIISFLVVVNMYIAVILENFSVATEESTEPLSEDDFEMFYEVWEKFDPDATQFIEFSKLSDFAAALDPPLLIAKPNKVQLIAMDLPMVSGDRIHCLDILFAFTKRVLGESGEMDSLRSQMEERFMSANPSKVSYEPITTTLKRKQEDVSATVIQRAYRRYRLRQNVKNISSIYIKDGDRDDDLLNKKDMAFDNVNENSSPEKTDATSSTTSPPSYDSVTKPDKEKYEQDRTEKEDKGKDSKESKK
Data set [2] deals with Nav 1.5 (Homo sapiens (Human), UniProt Q14524). The description is as above. The class given is cell-based. As to conditions: HEK-293 cells overexpressing the channel.
Sequence of Nav 1.5 (Q14524 whole entry): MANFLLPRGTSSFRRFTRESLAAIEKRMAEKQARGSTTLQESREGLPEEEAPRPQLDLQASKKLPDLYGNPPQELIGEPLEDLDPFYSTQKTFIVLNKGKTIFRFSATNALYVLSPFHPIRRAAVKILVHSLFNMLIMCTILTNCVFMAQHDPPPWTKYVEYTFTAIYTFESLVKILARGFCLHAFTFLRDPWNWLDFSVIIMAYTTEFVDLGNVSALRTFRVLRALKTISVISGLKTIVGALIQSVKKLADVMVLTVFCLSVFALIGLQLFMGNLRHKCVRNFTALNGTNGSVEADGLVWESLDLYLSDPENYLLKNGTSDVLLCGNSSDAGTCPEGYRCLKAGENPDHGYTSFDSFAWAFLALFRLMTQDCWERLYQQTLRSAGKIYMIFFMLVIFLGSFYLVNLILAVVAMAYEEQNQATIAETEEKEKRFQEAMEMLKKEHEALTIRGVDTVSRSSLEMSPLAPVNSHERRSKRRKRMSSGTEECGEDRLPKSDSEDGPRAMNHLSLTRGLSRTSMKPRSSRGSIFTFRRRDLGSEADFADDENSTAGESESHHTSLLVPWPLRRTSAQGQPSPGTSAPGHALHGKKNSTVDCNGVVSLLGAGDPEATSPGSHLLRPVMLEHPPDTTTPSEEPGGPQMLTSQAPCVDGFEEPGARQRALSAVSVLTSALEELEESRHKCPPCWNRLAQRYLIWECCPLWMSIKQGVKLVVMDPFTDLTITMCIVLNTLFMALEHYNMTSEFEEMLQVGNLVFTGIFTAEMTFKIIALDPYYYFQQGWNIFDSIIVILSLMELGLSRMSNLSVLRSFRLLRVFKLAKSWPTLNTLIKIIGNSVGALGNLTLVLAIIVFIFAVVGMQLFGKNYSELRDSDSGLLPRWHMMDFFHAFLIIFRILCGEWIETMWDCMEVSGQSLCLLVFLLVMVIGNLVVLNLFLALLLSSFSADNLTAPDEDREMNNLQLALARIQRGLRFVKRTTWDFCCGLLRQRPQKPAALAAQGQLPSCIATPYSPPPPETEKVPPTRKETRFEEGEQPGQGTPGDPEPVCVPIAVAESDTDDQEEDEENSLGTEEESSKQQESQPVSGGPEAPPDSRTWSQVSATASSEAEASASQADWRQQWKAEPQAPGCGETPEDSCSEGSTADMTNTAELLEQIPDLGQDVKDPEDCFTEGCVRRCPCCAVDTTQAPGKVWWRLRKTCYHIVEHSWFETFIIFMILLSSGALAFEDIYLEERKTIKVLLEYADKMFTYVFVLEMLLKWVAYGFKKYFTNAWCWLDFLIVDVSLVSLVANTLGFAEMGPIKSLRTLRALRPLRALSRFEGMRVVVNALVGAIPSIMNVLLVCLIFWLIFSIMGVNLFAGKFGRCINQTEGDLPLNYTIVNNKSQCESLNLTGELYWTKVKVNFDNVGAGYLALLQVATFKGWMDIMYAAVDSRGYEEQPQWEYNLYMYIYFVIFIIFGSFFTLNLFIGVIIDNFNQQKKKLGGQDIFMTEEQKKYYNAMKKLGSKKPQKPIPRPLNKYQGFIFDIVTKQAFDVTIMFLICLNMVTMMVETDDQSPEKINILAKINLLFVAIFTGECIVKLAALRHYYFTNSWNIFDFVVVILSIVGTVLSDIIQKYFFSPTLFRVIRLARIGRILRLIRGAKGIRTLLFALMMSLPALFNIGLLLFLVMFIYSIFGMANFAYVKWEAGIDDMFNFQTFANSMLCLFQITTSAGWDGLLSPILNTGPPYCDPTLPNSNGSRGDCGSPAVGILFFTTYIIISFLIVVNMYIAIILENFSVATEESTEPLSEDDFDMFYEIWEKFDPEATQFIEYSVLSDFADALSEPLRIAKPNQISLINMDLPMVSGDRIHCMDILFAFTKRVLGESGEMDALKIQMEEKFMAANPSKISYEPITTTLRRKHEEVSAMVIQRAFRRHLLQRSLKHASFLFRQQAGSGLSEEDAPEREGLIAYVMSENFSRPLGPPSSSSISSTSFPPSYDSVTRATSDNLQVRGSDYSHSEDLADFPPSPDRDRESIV
[3] abbreviates: read-out: Nav1.5 IC50 (bound given in μM).

Regarding `Cc1ccnc(NS(=O)(=O)c2ccc3c(c2)OCC[C@@H]3c2ccc(C(F)(F)F)cc2-c2ccnn2C)n1` [Example 30, (S&R)-4-(2-(1-methyl-1H-pyrazol-5-yl)-4-(trifluoromethyl)phenyl)-N-(4-methylpyrimidin-2-yl)chroman-7-sulfonamide], in data set [1], the “Nav1.7 inhibition @ 10 μM” value is given as 72%. Besides, the IC50 in data set [2] (setting [3]) was greater than 10 µM.

Consider `Cn1nccc1-c1cc(Cl)ccc1[C@@H]1CCOc2cc(S(=O)(=O)Nc3cccc(F)n3)ccc21` [Example 31, (S&R)-4-(4-chloro-2-(1-methyl-1H-pyrazol-5-yl)phenyl)-N-(6-fluoropyridin-2-yl)chroman-7-sulfonamide], for which the values for the half-inhibitory concentration (IC50) in data set [1] and in data set [2] (setting [3]) were 2.05 µM and greater than 10 µM, respectively.

In the case of `Cn1nccc1-c1cc(Cl)ccc1[C@H]1CCOc2cc(S(=O)(=O)Nc3cccc(F)n3)ccc21` [Example 32, (S&R)-4-(4-chloro-2-(1-methyl-1H-pyrazol-5-yl)phenyl)-N-(6-fluoropyridin-2-yl)chroman-7-sulfonamide], the half-inhibitory concentration (IC50) was 0.151 µM in data set [1] and greater than 10 µM in data set [2] (setting [3]).

On to `CC(C)Oc1ccc([C@@H]2CCOc3cc(S(=O)(=O)Nc4cccc(F)n4)ccc32)c(-c2ccnn2C)c1` [Example 33, (S&R)—N-(6-fluoropyridin-2-yl)-4-(4-isopropoxy-2-(1-methyl-1H-pyrazol-5-yl)phenyl)chroman-7-sulfonamide], for which the IC50 in data set [1] was 0.514 µM; in data set [2] (setting [3]) it was greater than 10 µM.

For `CC(C)Oc1ccc([C@H]2CCOc3cc(S(=O)(=O)Nc4cccc(F)n4)ccc32)c(-c2ccnn2C)c1` [Example 34, (S&R)—N-(6-fluoropyridin-2-yl)-4-(4-isopropoxy-2-(1-methyl-1H-pyrazol-5-yl)phenyl)chroman-7-sulfonamide], the figures for the IC50 in data set [1] and in data set [2] (setting [3]) were 0.057 µM and greater than 10 µM, respectively.

For `O=S(=O)(Nc1cccnn1)c1ccc2c(c1)OCC[C@H]2c1ccc(C(F)(F)F)cc1-c1ccc(F)nc1` [Example 41, (S&R)-4-(2-(6-Fluoropyridin-3-yl)-4-(trifluoromethyl)phenyl)-N-(pyridazin-3-yl)chromane-7-sulfonamide], the figures for the IC50 in data set [1] and in data set [2] (setting [3]) were 0.622 µM and greater than 10 µM, respectively.

`O=S(=O)(Nc1cccnn1)c1ccc2c(c1)OCC[C@@H]2c1ccc(C(F)(F)F)cc1-c1ccc(F)nc1` [Example 42, (S&R)-4-(2-(6-Fluoropyridin-3-yl)-4-(trifluoromethyl)phenyl)-N-(pyridazin-3-yl)chromane-7-sulfonamide]: the 50% inhibitory concentration (IC50) in data set [1] was 0.0002 µM; in data set [2] (read-out: Nav1.5 IC50) it was 0.644 µM.

Consider `O=S(=O)(Nc1ccncn1)c1ccc2c(c1)OCC[C@H]2c1ccc(C(F)(F)F)cc1-c1ccc(F)cc1` [Example 47, (S&R)-4-(4′-Fluoro-5-(trifluoromethyl)-[1,1′-biphenyl]-2-yl)-N-(pyrimidin-4-yl)chromane-7-sulfonamide], for which the “Nav1.7 inhibition @ 10 μM” value in data set [1] is on record as 64%. Also, the IC50 in data set [2] (setting [3]) was greater than 10 µM.

Regarding `O=S(=O)(Nc1cccnn1)c1ccc2c(c1)OCCC2c1ccc(C(F)(F)F)cc1-n1ccnn1` (centres unmarked) [Example 53, (S&R)-4-(2-(1H-1,2,3-Triazol-1-yl)-4-(trifluoromethyl)phenyl)-N-(pyridazin-3-yl)chromane-7-sulfonamide], in data set [1], the “Nav1.7 inhibition @ 10 μM” value is 70%. The “Nav1.5 % inhibition @ 10 μM” value in data set [2] was 44%.

With `O=S(=O)(Nc1cccnn1)c1ccc2c(c1)OCC[C@@H]2c1ccc(C(F)(F)F)cc1-n1ccnn1` [Example 54, (S&R)-4-(2-(1H-1,2,3-Triazol-1-yl)-4-(trifluoromethyl)phenyl)-N-(pyridazin-3-yl)chromane-7-sulfonamide], the IC50 in data set [1] is 0.706 µM; in data set [2] (setting [3]) it was greater than 10 µM.

As for `Cc1nc(-c2cc(C(F)(F)F)ccc2[C@@H]2CCOc3cc(S(=O)(=O)Nc4cccc(F)n4)ccc32)cs1` [Example 61], the IC50 in data set [1] was 0.568 µM; in data set [2] (setting [3]) it was greater than 10 µM.

For the molecule `Cc1nc(-c2cc(C(F)(F)F)ccc2[C@H]2CCOc3cc(S(=O)(=O)Nc4cccc(F)n4)ccc32)cs1` [Example 62], the IC50 in data set [1] amounted to 0.005 µM. For the same molecule, the “Nav1.5 % inhibition @ 10 μM” value in data set [2] turned out to be 42%.

With `Cc1nc(-c2cc(C(F)(F)F)ccc2[C@@H]2CCOc3cc(S(=O)(=O)Nc4ncccn4)ccc32)cs1` [Example 63, (S&R)-4-(2-(2-Methylthiazol-4-yl)-4-(trifluoromethyl)phenyl)-N-(pyrimidin-2-yl)chroman-7-sulfonamide], the 50% inhibitory concentration (IC50) in data set [1] is 0.526 µM; in data set [2] (setting [3]), greater than 10 µM.

`Cc1nc(-c2cc(C(F)(F)F)ccc2[C@H]2CCOc3cc(S(=O)(=O)Nc4ncccn4)ccc32)cs1` [Example 64, (S&R)-4-(2-(2-Methylthiazol-4-yl)-4-(trifluoromethyl)phenyl)-N-(pyrimidin-2-yl)chroman-7-sulfonamide]: the half-maximal inhibitory concentration (IC50) is 0.003 µM in data set [1] and greater than 10 µM in data set [2] (setting [3]).

On to `Cc1nc(-c2cc(C(F)(F)F)ccc2[C@@H]2CCOc3cc(S(=O)(=O)Nc4ccncn4)ccc32)cs1` [Example 67, (S&R)-4-(2-(2-Methylthiazol-4-yl)-4-(trifluoromethyl)phenyl)-N-(pyrimidin-4-yl)chroman-7-sulfonamide], for which the concentration for half-maximal inhibition (IC50) was 0.03 µM in data set [1] and greater than 10 µM in data set [2] (setting [3]).

`Cc1nc(-c2cc(C(F)(F)F)ccc2[C@H]2CCOc3cc(S(=O)(=O)Nc4ccncn4)ccc32)cs1` [Example 68, (S&R)-4-(2-(2-Methylthiazol-4-yl)-4-(trifluoromethyl)phenyl)-N-(pyrimidin-4-yl)chroman-7-sulfonamide]: the concentration for half-maximal inhibition (IC50) in data set [1] turned out to be 0.0009 µM. Besides, the “Nav1.5 % inhibition @ 10 μM” value in data set [2] was determined as 29%.

Turning to `Cc1nc(-c2cc(C(F)(F)F)ccc2[C@H]2CCOc3cc(S(=O)(=O)Nc4cccnn4)ccc32)cs1` [Example 70, (S&R)-4-(2-(2-Methylthiazol-4-yl)-4-(trifluoromethyl)phenyl)-N-(pyridazin-3-yl)chroman-7-sulfonamide], the IC50 in data set [1] is 0.115 µM; in data set [2] (setting [3]) it was greater than 10 µM.

With `Cc1nc(-c2cc(C(F)(F)F)ccc2[C@@H]2CCOc3cc(S(=O)(=O)Nc4cccnn4)ccc32)co1` [Example 79, (S&R)-4-(2-(2-methyloxazol-4-yl)-4-(trifluoromethyl)phenyl)-N-(pyridazin-3-yl)chroman-7-sulfonamide], the IC50 in data set [1] is 2.52 µM; in data set [2] (setting [3]), greater than 10 µM.

Regarding `Cc1nc(-c2cc(C(F)(F)F)ccc2[C@H]2CCOc3cc(S(=O)(=O)Nc4cccnn4)ccc32)co1` [Example 80, (S&R)-4-(2-(2-methyloxazol-4-yl)-4-(trifluoromethyl)phenyl)-N-(pyridazin-3-yl)chroman-7-sulfonamide], the IC50 in data set [1] worked out at 0.114 µM. Besides, the “Nav1.5 % inhibition @ 10 μM” value in data set [2] amounted to 53%.

Turning to `CS(=O)(=O)CCc1cc(C(F)(F)F)ccc1[C@@H]1CCOc2cc(S(=O)(=O)Nc3cccc(F)n3)ccc21` [Example 81, (S&R)—N-(6-Fluoropyridin-2-yl)-4-(2-(2-(methylsulfonyl)ethyl)-4-(trifluoromethyl)phenyl)chroman-7-sulfonamide], the half-inhibitory concentration (IC50) in data set [1] turned out to be 0.993 µM. The “Nav1.5 % inhibition @ 10 μM” value in data set [2] is 34%.

Consider `CS(=O)(=O)CCc1cc(C(F)(F)F)ccc1[C@H]1CCOc2cc(S(=O)(=O)Nc3cccc(F)n3)ccc21` [Example 82, (S&R)—N-(6-Fluoropyridin-2-yl)-4-(2-(2-(methylsulfonyl)ethyl)-4-(trifluoromethyl)phenyl)chroman-7-sulfonamide], for which the half-inhibitory concentration (IC50) in data set [1] was 0.02 µM; in data set [2] (setting [3]), greater than 10 µM.

For the molecule `CS(=O)(=O)CCc1cc(C(F)(F)F)ccc1[C@@H]1CCOc2cc(S(=O)(=O)Nc3ncccn3)ccc21` [Example 83, (S&R)-4-(2-(2-(Methylsulfonyl)ethyl)-4-(trifluoromethyl)phenyl)-N-(pyrimidin-2-yl)chroman-7-sulfonamide], the “Nav1.7 inhibition @ 10 μM” value in data set [1] is reported as 71%. For the same molecule, the IC50 in data set [2] (setting [3]) was greater than 10 µM.

Consider `CS(=O)(=O)CCc1cc(C(F)(F)F)ccc1[C@H]1CCOc2cc(S(=O)(=O)Nc3ncccn3)ccc21` [Example 84, (S&R)-4-(2-(2-(Methylsulfonyl)ethyl)-4-(trifluoromethyl)phenyl)-N-(pyrimidin-2-yl)chroman-7-sulfonamide], for which the IC50 in data set [1] was 2.58 µM; in data set [2] (setting [3]), greater than 10 µM.

As to `CS(=O)(=O)CCc1cc(C(F)(F)F)ccc1[C@@H]1CCOc2cc(S(=O)(=O)Nc3ncc(F)cn3)ccc21` [Example 85, (S&R)—N-(5-Fluoropyrimidin-2-yl)-4-(2-(2-(methylsulfonyl)ethyl)-4-(trifluoromethyl)phenyl)chroman-7-sulfonamide], the IC50 in data set [1] is 2.72 µM; in data set [2] (setting [3]), greater than 10 µM.

In the case of `CS(=O)(=O)CCc1cc(C(F)(F)F)ccc1[C@H]1CCOc2cc(S(=O)(=O)Nc3ncc(F)cn3)ccc21` [Example 86, (S&R)—N-(5-Fluoropyrimidin-2-yl)-4-(2-(2-(methylsulfonyl)ethyl)-4-(trifluoromethyl)phenyl)chroman-7-sulfonamide], the concentration for half-maximal inhibition (IC50) was 2.39 µM in data set [1] and greater than 10 µM in data set [2] (setting [3]).

Take `CS(=O)(=O)CCc1cc(C(F)(F)F)ccc1[C@@H]1CCOc2cc(S(=O)(=O)Nc3ccncn3)ccc21` [Example 87, (S&R)-4-(2-(2-(Methylsulfonyl)ethyl)-4-(trifluoromethyl)phenyl)-N-(pyrimidin-4-yl) chroman-7-sulfonamide]: the “Nav1.7 inhibition @ 10 μM” value in data set [1] was found to be 58%. The concentration for half-maximal inhibition (IC50) in data set [2] (setting [3]) is greater than 10 µM.

For `CS(=O)(=O)CCc1cc(C(F)(F)F)ccc1[C@H]1CCOc2cc(S(=O)(=O)Nc3ccncn3)ccc21` [Example 88, (S&R)-4-(2-(2-(Methylsulfonyl)ethyl)-4-(trifluoromethyl)phenyl)-N-(pyrimidin-4-yl) chroman-7-sulfonamide], the IC50 in data set [1] was 0.626 µM; in data set [2] (setting [3]), greater than 10 µM.

In the case of `O=S(=O)(Nc1cccc(F)n1)c1ccc2c(c1)OCC[C@H]2c1ccc(C(F)(F)F)cc1-n1cccn1` [Example 89, (S&R)-4-(2-(1H-pyrazol-1-yl)-4-(trifluoromethyl)phenyl)-N-(6-fluoropyridin-2-yl)chroman-7-sulfonamide], the IC50 in data set [1] is 0.108 µM; in data set [2] (setting [3]), greater than 10 µM.
